Common to all, as to format: binding
The target of one assay is T1, aprataxin FHA domain (Homo sapiens, UniProt Q7Z2E3).
T1 construct: aprataxin residues 1–105; GST (pGEX-6P-1) (N, cleaved yes); made in house; host or cells: Escherichia coli BL21 (DE3)
The assay is described as follows: NMR (1H-SOFAST-HMQC) titrations of aprataxin FHA domain with XRCC1 phosphopeptides. The following applies: NMR titration, 22 °C. On the procedure:
NMR experiments were carried out at 22 °C on Bruker Avance II+ 600 MHz and Avance III 700 MHz spectrometers, each equipped with a cryogenic triple-resonance probe. Protein and peptides were prepared in NMR buffer (20 mM Na Acetate pH 5.8, 50 mM NaCl, 2 mM DTT). Three-dimensional HNCA, HNCO, HNCACB and CBCA(CO)NH experiments were performed to obtain backbone assignments. NMR titration experiments were carried out by adding the unlabelled XRCC1 peptides to ^15N-labeled aprataxin FHA domain. The initial protein concentration was 92 μM and volumes of 2 mM stock solution of peptide were added until the protein:peptide ratio was 1:4. ^1H-SOFAST-HMQC [36] spectra were measured after each titration step. All spectra were processed using nmrPipe, and analysed using CARA/NEASY [38]. The weighted chemical shift change (in ppm units) of each amide proton (ΔδHN) and nitrogen (ΔδN) was calculated according to the equation: Δδtotal = [(ΔδHNWHN)^2 + (ΔδNWN)^2]^1/2 with WHN = 1 and WN = 0.154 [39]. Weighted chemical shifts for residues D37, V45, Q46, V61 and V63 were plotted against peptide concentration to determine individual Kds and averaged to determine the apparent Kd.

For assay [1], the target named is T2, R42A Mutant of aprataxin FHA domain (Homo sapiens, UniProt Q7Z2E3, R56A).
T2 construct: aprataxin residues 1–105; GST (pGEX-6P-1) (N, cleaved yes); made in house; host or cells: Escherichia coli BL21 (DE3)
The assay is described as follows: ITC of R42A mutant of aprataxin FHA domain with XRCC1 and XRCC4 phosphopeptides. Conditions: 22 °C, 50 mM HEPES pH 7.5, 150 mM NaCl, 5 mM β-mercaptoethanol, single-site model. An excerpt:
(§1) The genes for aprataxin residues 1–105 and APLF residues 1–106 were amplified using primer sets which incorporated 5′ BamHI and 3′ XhoI sites. PCR products and pGEX-6P-1 vector were digested with BamHI and XhoI and religated. All point mutations were generated using a QuickChange Site-Directed Mutagenesis Kit (Stratagene) following the manufacturer's recommended protocol.
(§2) For expression, the pGEX-6P-1/aprataxin-FHA constructs were transformed into Escherichia coli strain BL21 (DE3) and the pGEX-6P-1/APLF-FHA constructs transformed into the strain Rosetta2 (DE3). Cells were grown in LB at 37 °C to an A600 of 0.5, induced with 0.4 mM isopropyl 1-thio-β-D-galactopyranoside and incubated at 18 °C for a further 16 h before harvesting. Cells were lysed by sonication and clarified by centrifugation (20,000 × g × 30 min). The supernatant was applied to a glutathione-4B resin (Amersham) and cleaved from the resin with rhinovirus 3C protease. Proteins were purified further by gel-filtration chromatography on a Superdex 75 matrix in 20 mM Tris pH 7.5, 150 mM NaCl, 5 mM DTT. Selenomethionine-labelled APLF L91 M protein was expressed in Rosetta2 (DE3) cells cultured in SelenoMet base media and nutrients supplemented with seleno-methionine solution (Molecular Dimensions Ltd.) and purified as the wild-type protein.
(§3) Phosphopeptides based on the XRCC1 sequence 515-YAGSTDENTDSEEHQ-529 and the XRCC4 sequence 229-YDESTDEES-237 were synthesised with amidated C-termini to avoid potential end-effects of a free carboxy-terminus by Dr. W. Mawby (University of Bristol), purified by HPLC and characterised by mass spectrometry. FHA-phosphopeptide binding was quantified by isothermal titration calorimetry using a Microcal Omega VP-ITC calorimeter (MicroCal Inc., Northampton, MA). Protein was dialysed against ITC buffer (50 mM HEPES pH 7.5, 150 mM NaCl, 5 mM β-mercaptoethanol) and peptides were dissolved in the dialysis buffer. Experiments were carried out at 22 °C and involved 30 successive 10 μl injections of peptide solution into a sample cell containing protein solution. Titrations with XRCC1 peptides used peptide at 1 mM and protein at 100 μM and titrations with XRCC4 peptides used peptide at 300 μm and protein at 30 μM. Heats of dilution were subtracted and binding isotherms were plotted and analysed with MicroCal origin version 7.0, assuming a single-site binding model.

For assay [2], the target named is T3, wild-type aprataxin FHA domain (Homo sapiens, UniProt Q7Z2E3).
T3 construct: aprataxin residues 1–105; GST (pGEX-6P-1) (N, cleaved yes); made in house; host or cells: Escherichia coli BL21 (DE3)
The assay is described as follows: ITC of wild-type aprataxin FHA domain with XRCC1 and XRCC4 phosphopeptides. The following applies: 22 °C, 50 mM HEPES pH 7.5, 150 mM NaCl, 5 mM β-mercaptoethanol, peptide in syringe, XRCC1 peptides 1 mM into 100 μM protein, XRCC4 peptides 300 μM into 30 μM protein, single-site model, representative of triplicate.
Description: as §1, §2, §3

Assay [3] addresses T4, K38A Mutant of aprataxin FHA domain (Homo sapiens, UniProt Q7Z2E3, K52A).
T4 construct: aprataxin residues 1–105; GST (pGEX-6P-1) (N, cleaved yes); made in house; host or cells: Escherichia coli BL21 (DE3)
The assay is described as follows: ITC of K38A mutant of aprataxin FHA domain with XRCC1 and XRCC4 phosphopeptides. Conditions: 22 °C, 50 mM HEPES pH 7.5, 150 mM NaCl, 5 mM β-mercaptoethanol, single-site model.
Description: as §1, §2, §3

Assay [4] concerns the target T5, wild-type APLF FHA domain (Homo sapiens, UniProt Q8IW19).
T5 construct: APLF residues 1–106; GST (pGEX-6P-1) (N, cleaved yes); made in house; host or cells: Escherichia coli Rosetta2 (DE3)
T5 sequence (Q8IW19 1-106): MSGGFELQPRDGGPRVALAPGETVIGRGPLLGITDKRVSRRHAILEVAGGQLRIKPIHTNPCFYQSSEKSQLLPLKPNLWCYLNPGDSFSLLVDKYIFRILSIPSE
The assay is described as follows: ITC of wild-type APLF FHA domain with XRCC1 and XRCC4 phosphopeptides. The following applies: 22 °C, 50 mM HEPES pH 7.5, 150 mM NaCl, 5 mM β-mercaptoethanol, peptide in syringe, XRCC1 peptides 1 mM into 100 μM protein, XRCC4 peptides 300 μM into 30 μM protein, single-site model, representative of triplicate.
Description: as §1
For expression, the pGEX-6P-1/aprataxin-FHA constructs were transformed into Escherichia coli strain BL21 (DE3) and the pGEX-6P-1/APLF-FHA constructs transformed into the strain Rosetta2 (DE3). Cells were grown in LB at 37 °C to an A600 of 0.5, induced with 0.4 mM isopropyl 1-thio-β-D-galactopyranoside and incubated at 18 °C for a further 16 h before harvesting. […]
Phosphopeptides based on the XRCC1 sequence 515-YAGSTDENTDSEEHQ-529 and the XRCC4 sequence 229-YDESTDEES-237 were synthesised with amidated C-termini to avoid potential end-effects of a free carboxy-terminus by Dr. W. Mawby (University of Bristol), purified by HPLC and characterised by mass spectrometry. FHA-phosphopeptide binding was quantified by isothermal titration calorimetry using a Microcal Omega VP-ITC calorimeter (MicroCal Inc., Northampton, MA). […] Heats of dilution were subtracted and binding isotherms were plotted and analysed with MicroCal origin version 7.0, assuming a single-site binding model.

The values below come from article PMC4655838, “Versatility in phospho-dependent molecular recognition of the XRCC1 and XRCC4 DNA-damage scaffolds by aprataxin-family FHA domains” (DNA Repair, 2015).

Where two headings read alike, the source gives them in different places. Square brackets hold non-standard residues; d marks the D form. Peptide text beside a SMILES is read from it. pT = C[C@@H](OP(=O)(O)O)[C@H](N)C(=O)O; pS = N[C@@H](COP(=O)(O)O)C(=O)O

T1 sequence (Q7Z2E3 15-119): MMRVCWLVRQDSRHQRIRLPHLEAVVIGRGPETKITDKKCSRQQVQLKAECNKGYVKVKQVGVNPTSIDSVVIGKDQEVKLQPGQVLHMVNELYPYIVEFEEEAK
T3 sequence (Q7Z2E3 15-119): as above
T4 sequence (Q7Z2E3 15-119 K52A): as the sequence (Q7Z2E3 15-119) above, with K38A counted along it
T2 sequence (Q7Z2E3 15-119 R56A): as the sequence (Q7Z2E3 15-119) above, with R42A counted along it

On to `C[C@H](NC(=O)[C@@H](N)Cc1ccc(O)cc1)C(=O)NCC(=O)N[C@@H](CO)C(=O)N[C@H](C(=O)N[C@@H](CC(=O)O)C(=O)N[C@@H](CCC(=O)O)C(=O)N[C@@H](CC(N)=O)C(=O)N[C@H](C(=O)N[C@@H](CC(=O)O)C(=O)N[C@@H](CO)C(=O)N[C@@H](CCC(=O)O)C(=O)N[C@@H](CCC(=O)O)C(=O)N[C@@H](Cc1c[nH]cn1)C(=O)N[C@@H](CCC(N)=O)C(N)=O)[C@@H](C)O)[C@@H](C)OP(=O)(O)O` [YAGSpTDENTDSEEHQ] (HELM PEPTIDE1{Y.A.G.S.[C[C@@H](OP(=O)(O)O)[C@H](N[*:1])C(=O)[*:2]].D.E.N.T.D.S.E.E.H.Q.[am]}$$$$V2.0), for which the Kd at aprataxin FHA domain (20 mM Na Acetate pH 5.8, 50 mM NaCl, 2 mM DTT, 92 µM 15N aprataxin FHA, 2 mM peptide stock, read-out: Kd from weighted chemical shift of residue Asp37) was 9.6 µM; on aprataxin FHA domain (pH 5.8, 92 µM aprataxin FHA, read-out: Kd from weighted chemical shift of residue Gln46), 5.3 µM; on aprataxin FHA domain (pH 5.8, 92 µM aprataxin FHA, read-out: Kd from weighted chemical shift of residue Val45), 8.1 µM; on aprataxin FHA domain (pH 5.8, 92 µM aprataxin FHA, read-out: Kd from weighted chemical shift of residue Val61), 4.2 µM; on aprataxin FHA domain (pH 5.8, 92 µM aprataxin FHA, read-out: Kd from weighted chemical shift of residue Val63), 6.8 µM; in assay [1], at least 100 µM. For the same compound, the results for the Kd in assay [2] and in assay [3] were 17 ± 0.4 µM and 46 ± 2 µM, respectively.

On to `C[C@H](NC(=O)[C@@H](N)Cc1ccc(O)cc1)C(=O)NCC(=O)N[C@@H](CO)C(=O)N[C@H](C(=O)N[C@@H](CC(=O)O)C(=O)N[C@@H](CCC(=O)O)C(=O)N[C@@H](CC(N)=O)C(=O)N[C@H](C(=O)N[C@@H](CC(=O)O)C(=O)N[C@@H](COP(=O)(O)O)C(=O)N[C@@H](CCC(=O)O)C(=O)N[C@@H](CCC(=O)O)C(=O)N[C@@H](Cc1c[nH]cn1)C(=O)N[C@@H](CCC(N)=O)C(N)=O)[C@@H](C)OP(=O)(O)O)[C@@H](C)O` [YAGSTDENpTDpSEEHQ] (HELM PEPTIDE1{Y.A.G.S.T.D.E.N.[C[C@@H](OP(=O)(O)O)[C@H](N[*:1])C(=O)[*:2]].D.[O=C([C@H](COP(=O)(O)O)N[*:1])[*:2]].E.E.H.Q.[am]}$$$$V2.0), for which the Kd in assay [2] came to 33 ± 0.87 µM.

As to `C[C@H](NC(=O)[C@@H](N)Cc1ccc(O)cc1)C(=O)NCC(=O)N[C@@H](COP(=O)(O)O)C(=O)N[C@H](C(=O)N[C@@H](CC(=O)O)C(=O)N[C@@H](CCC(=O)O)C(=O)N[C@@H](CC(N)=O)C(=O)N[C@H](C(=O)N[C@@H](CC(=O)O)C(=O)N[C@@H](COP(=O)(O)O)C(=O)N[C@@H](CCC(=O)O)C(=O)N[C@@H](CCC(=O)O)C(=O)N[C@@H](Cc1c[nH]cn1)C(=O)N[C@@H](CCC(N)=O)C(N)=O)[C@@H](C)OP(=O)(O)O)[C@@H](C)OP(=O)(O)O` [YAGpSpTDENpTDpSEEHQ] (H-YAG[pS][pT]DEN[pT]D[pS]EEHQ-NH2), the Kd in assay [2] was determined as 0.87 ± 0.05 µM; in assay [4] it was 11 ± 0.3 µM.

Regarding `C[C@@H](OP(=O)(O)O)[C@H](NC(=O)[C@H](COP(=O)(O)O)NC(=O)[C@H](CCC(=O)O)NC(=O)[C@H](CC(=O)O)NC(=O)[C@@H](N)Cc1ccc(O)cc1)C(=O)N[C@@H](CC(=O)O)C(=O)N[C@@H](CCC(=O)O)C(=O)N[C@@H](CCC(=O)O)C(=O)N[C@@H](CO)C(N)=O` [YDEpSpTDEES] (HELM PEPTIDE1{Y.D.E.[O=C([C@H](COP(=O)(O)O)N[*:1])[*:2]].[C[C@@H](OP(=O)(O)O)[C@H](N[*:1])C(=O)[*:2]].D.E.E.S.[am]}$$$$V2.0), the figures for the Kd in assay [1], in assay [2] and in assay [3] were at least 100 µM, 0.25 ± 0.02 µM and 1.9 ± 0.06 µM, respectively.
